Laboratory results from ChEMBL document CHEMBL1143708, “5-alkynyl analogs of arabinouridine and 2'-deoxyuridine: cytostatic activity against herpes simplex virus and varicella-zoster thymidine kinase gene-transfected cells” (J Med Chem, 2007).
Values after ≈ are worked out from the molar mass of the structure shown.

system: Vaccinia virus; experiment: Antiviral activity against Vaccinia virus in E6SM cells assessed as reduction of virus-induced cytopathogenicity; format: functional, organism-based; details: Orthopoxvirus vaccinia

Point of comparison: `C#Cc1cn([C@H]2C[C@H](O)[C@@H](CO)O2)c(=O)[nH]c1=O`, EC50 0.1 µg/mL (≈ 0.396 µM). Against it:
- Nc1nc2c(ncn2COC(CO)CO)c(=O)[nH]1 [GANCICLOVIR] — higher, > 100 µg/mL
- C[Si](C)(C)C#Cc1cn([C@H]2C[C@H](O)[C@@H](CO)O2)c(=O)[nH]c1=O — 2-fold higher, 0.2 µg/mL (≈ 0.617 µM)
- C[Si](C)(C)C#Cc1cn([C@@H]2O[C@H](CO)[C@@H](O)[C@@H]2O)c(=O)[nH]c1=O — 70-fold higher, 7 µg/mL (≈ 20.6 µM)
- NC(=O)c1ncn([C@@H]2O[C@H](CO)[C@@H](O)[C@H]2O)n1 [RIBAVIRIN] — 200-fold higher, 20 µg/mL (≈ 81.9 µM)
- CC(=O)OC[C@H]1O[C@@H](n2cc(C#CI)c(=O)[nH]c2=O)[C@@H](OC(C)=O)[C@@H]1OC(C)=O — higher, > 10 µg/mL
- O=c1[nH]c(=O)n([C@H]2C[C@H](O)[C@@H](CO)O2)cc1C#CI — 2-fold higher, 0.2 µg/mL (≈ 0.529 µM)
- Nc1nc2c(ncn2COCCO)c(=O)[nH]1 [ACYCLOVIR] — higher, > 400 µg/mL
- O=c1[nH]c(=O)n([C@H]2C[C@H](O)[C@@H](CO)O2)cc1/C=C/Br [BRIVUDINE] — 2-fold higher, 0.2 µg/mL (≈ 0.6 µM)
